Assays:
[1] = target: T1, FXR (Homo sapiens, UniProt Q96RI1); experiment: FXR transactivation (luciferase reporter) assay in HepG2 cells; type: cell-based; settings: HepG2 cells
T1 construct: expressed in transfected cells; host or cells: HepG2 (the text says EC50 dose-response curves were run in HEK-293T)
T1 sequence (Q96RI1 1-486): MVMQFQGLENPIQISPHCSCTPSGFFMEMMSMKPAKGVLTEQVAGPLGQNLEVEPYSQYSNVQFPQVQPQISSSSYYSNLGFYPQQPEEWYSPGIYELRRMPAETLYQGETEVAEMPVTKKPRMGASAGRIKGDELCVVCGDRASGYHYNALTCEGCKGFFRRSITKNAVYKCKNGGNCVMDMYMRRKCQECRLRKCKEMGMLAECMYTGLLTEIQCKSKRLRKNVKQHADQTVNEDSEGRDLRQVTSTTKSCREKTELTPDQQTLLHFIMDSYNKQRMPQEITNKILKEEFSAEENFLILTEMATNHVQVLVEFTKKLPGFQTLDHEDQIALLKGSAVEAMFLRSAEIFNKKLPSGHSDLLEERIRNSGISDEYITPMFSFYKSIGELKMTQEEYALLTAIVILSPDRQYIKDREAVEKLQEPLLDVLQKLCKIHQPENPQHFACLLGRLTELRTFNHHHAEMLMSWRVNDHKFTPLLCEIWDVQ
T1 sequence (P19793 1-462 partner): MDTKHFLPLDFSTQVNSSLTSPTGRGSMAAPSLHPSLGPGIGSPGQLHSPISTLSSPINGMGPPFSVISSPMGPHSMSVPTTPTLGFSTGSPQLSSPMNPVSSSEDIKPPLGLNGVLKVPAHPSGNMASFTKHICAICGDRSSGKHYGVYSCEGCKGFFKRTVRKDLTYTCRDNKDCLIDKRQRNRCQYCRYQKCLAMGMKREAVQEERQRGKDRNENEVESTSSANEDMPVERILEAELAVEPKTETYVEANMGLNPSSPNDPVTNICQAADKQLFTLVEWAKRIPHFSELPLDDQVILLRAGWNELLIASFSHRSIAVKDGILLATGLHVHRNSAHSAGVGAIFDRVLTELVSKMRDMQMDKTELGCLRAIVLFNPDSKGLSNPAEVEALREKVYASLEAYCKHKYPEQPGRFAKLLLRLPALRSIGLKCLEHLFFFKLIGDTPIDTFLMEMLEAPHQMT
Experimental: HepG2 and HEK-293T cells were cultured at 37 °C in minimal essential medium (MEM) and Dulbecco’s Modified Eagle Medium (DMEM) respectively, supplemented with 10% fetal bovine serum, 1% L-glutamine, 100 U/mL penicillin, and 100 μg/mL streptomycin. To investigate FXR-mediated transactivation, the HepG2 cells were transfected with 200 ng of the reporter vector p (hsp27)TK-Luc containing the FXR response element IR1 cloned from the promoter of heat shock protein 27 (hsp27), plus 100 ng pSG5-FXR, 100 ng pSG5-RXR, and 100 ng pGL4.70 Renilla. To evaluate GPBAR1 mediated transactivation, HEK-293T cells were transfected with 200 ng of human pGL4.29 (Promega), a reporter vector containing a cAMP response element (CRE) that drives the transcription of the luciferase reporter gene luc2P, with 100 ng of pCMVSPORT6-human GPBAR1, and with 100 ng of pGL4.70. At 24 h post-transfection, cells were stimulated 18 h with 10 μM TLCA (taurolithocholic acid a GPBAR1 agonist) or CDCA (FXR agonist) and compounds. To calculate the EC50 on FXR and GPBAR1, dose-response curves were performed in HEK-293T cells transfected as described above and then treated with increasing concentrations of compounds (from 0.1 to 50 µM). After treatments, cells were lysed in 100 μL of lysis buffer (25 mM Tris-phosphate, pH 7.8; 2 mM DTT; 10% glycerol; 1% Triton X-100), and 10 μL of cellular lysate was assayed for luciferase activity using the Firfly &Renilla Luciferase assay kit (Biotium). Luminescence was measured using Glomax 20/20 luminometer (Promega). Luciferase activities were assayed and normalized with Renilla activities.

[2] = Chemical stability in HCl buffer, PBS buffer and culture medium by LC-MS; type: physicochemical; settings: 10 μM
Experimental: Chemical stability in HCl Buffer, PBS buffer and culture medium (EMEM) was evaluated by LC-MS dissolving compound 1 at 10 μM (final concertation) in cited buffers and injecting aliquots removed from incubations at different time points. Microsomal stability was evaluated employing 50 mM potassium phosphate buffer (pH 7.4) containing 0.15 mg of Human liver microsomes (Sigma-Aldrich, St. Louis, MO, United States) 5 mM MgCl2, 1 mM NADPH, 5 mM glucose 6-phosphate, 0.4 U·mL^−1 glucose 6-phosphate dehydrogenase. Compounds were tested at 1 µM final concentration. Aliquots, removed at different time points, were diluted with ice-cold acetonitrile and analyzed by LC-MS.

[3] = Stability in cryopreserved pooled human hepatocytes; type: in vitro ADME; settings: cryopreserved pooled human hepatocytes (HEP10), read-out: t1/2 in cryopreserved hepatocytes
Experimental: Cryopreserved HEP10 Pooled Human Hepatocytes were thawed in 37°C water bath for 2 min and then transferred into CHRM® Medium. After centrifugation at room temperature cells were resuspended in pre-warmed Incubation Medium and diluted to correct seeding density (5 × 10^5 cells/mL).

| Compound | EC50 [1] [µM] | Chemical stability in HCl buffer ([2]; HCl buffer, 2h) | Chemical stability in PBS buffer ([2]; PBS buffer pH 7.4, 8 h) | Chemical stability in culture medium ([2]; culture medium (EMEM), 8 h) | half-life [3] [h] |
| --- | --- | --- | --- | --- | --- |
| CC[C@H]1[C@@H](O)[C@@H]2[C@H](CC[C@]3(C)[C@@H]([C@H](C)CCO)CC[C@@H]23)[C@@]2(C)CC[C@@H](O)C[C@@H]12 [BAR502, 6α-ethyl-3α,7α-dihydroxy-24-nor-5β-cholan-23-ol] | 2 ± 0.2 |  |  |  |  |
| CC[C@@H]1C2C[C@H](O)CC[C@]2(C)C2CC[C@@]3(C)C(CC[C@@H]3[C@H](C)CCOC(=O)C(C)(C)Oc3ccc(Cl)cc3)C2[C@@H]1O (stereo partly drawn) [Compound 1] | 2.8 ± 0.01 | stable | stable | stable | 2.02 |
